According to article PMC8111447 (Frontiers in Pharmacology, 2021):

What was measured:
[1] = tested on: PC-9 (EGFR^d746–750); experiment: Cell proliferation assay (CTG, 72 h); assay type: cell-based, human; conditions: for IC50: Homo sapiens, PC-9 cells, 72 h, mean ± SD, n = 3
Protocol: (§1) Human lung cancer cell lines (NCI-H1975, H3255 and A431) were obtained from the American Type Culture Collection (ATCC), while PC-9 cell line was supplied by the European Collection of Authenticated Cell Cultures (ECACC). For in vivo implantation, NCI-H1975, H3255 and PC-9 cells were cultured in RPMI1640 (Invitrogen) supplemented with 10% v/v fetal calf serum (Sigma-Aldrich) and 2 mmol/L L-glutamine (Invitrogen). A431 cells were cultured in DMEM (Invitrogen) supplemented with 10% v/v fetal calf serum and 2 mmol/L v/v L-glutamine. All cell lines were then cultured in a humidified incubator with 5% CO2 at 37°C.
(§2) Test compounds were dissolved in DMSO as a 10 mmol/L stock solution. The initial concentration of compounds were 10 μmol/L and the 3-fold dilution was nine times. […] Plate was shaked for 2 min and the mixture was incubated at room temperature for 10 min.
(§3) The half-maximal inhibition concentration (IC50) values were processed by GraphPad Prism7 (GraphPad Software; La Jolla, CA).

[2] = tested on: H3255 (EGFR^L858R); experiment: Cell proliferation assay (CTG, 72 h); assay type: cell-based, human; conditions: for IC50: Homo sapiens, NCI-H3255, H3255 cells, 72 h, mean ± SD, n = 3
Protocol: as §1, §2, §3

[3] = tested on: EGFR phosphorylation (pY1068) in NCI-H1975 cells; experiment: Phosphorylation of EGFR assay, time course; assay type: cell-based, human; conditions: 0.1 μmol/L, 1-10 h
Protocol: Cells (NCI-H1975/PC-9/[…]) were seeded into a 384-well plate (10,000 cells/well), grown for 24 h, and then treated with different test compounds (0.1 μmol/L) for 1, 2, 4, 6, 8 and 10 h. A431 cells were stimulated with 100 ng/ml EGF after incubation for 10 min. Cells were washed with ice-cold HBSS before extraction with 25 μl cell lysis buffer. Phosphorylation of EGFR was measured using a sandwich ELISA assay with phospho-specific EGFR (pY1068) antibodies [AlphaLISA SureFire p-EGF Receptor (Tyr1068) Assay Kit, PerkinElmer].

[4] = tested on: EGFR phosphorylation in PC-9 cells; experiment: Phosphorylation of EGFR assay after wash-out; assay type: cell-based, human; conditions: 0.1 μmol/L for 2 h, then washed out
Protocol: (§4) Cells (NCI-H1975/PC-9/[…]) were seeded into a 384-well plate (10,000 cells/well), grown for 24 h, and then treated with 0.1 μmol/L of test compounds for 2 h. Cells were washed with fresh medium once. Then, 50 μl of medium was added in each well and the plate was cultured in an incubator for 0, 1, 2, 6 and 24 h. Cells were washed with ice-cold Hanks Balanced Salt Solution (HBSS) before extraction with 25 μl cell lysis buffer. The phosphorylation levels of EGFR were measured as described above.

[5] = tested on: EGFR phosphorylation in NCI-H1975 cells; experiment: Phosphorylation of EGFR assay after wash-out; assay type: cell-based, human; conditions: 0.1 μmol/L for 2 h, then washed out
Protocol: as §4

[6] = biological target: T1, ALK(h) (Homo sapiens, UniProt Q9UM73); experiment: Kinase panel (Eurofins); assay type: biochemical; conditions: n = 2; for inhibition at 1 µM: at 1 μmol/L; for IC50: read-out: IC50 kinase inhibition
T1 construct: purchased Eurofins
T1 sequence (Q9UM73 19-1620): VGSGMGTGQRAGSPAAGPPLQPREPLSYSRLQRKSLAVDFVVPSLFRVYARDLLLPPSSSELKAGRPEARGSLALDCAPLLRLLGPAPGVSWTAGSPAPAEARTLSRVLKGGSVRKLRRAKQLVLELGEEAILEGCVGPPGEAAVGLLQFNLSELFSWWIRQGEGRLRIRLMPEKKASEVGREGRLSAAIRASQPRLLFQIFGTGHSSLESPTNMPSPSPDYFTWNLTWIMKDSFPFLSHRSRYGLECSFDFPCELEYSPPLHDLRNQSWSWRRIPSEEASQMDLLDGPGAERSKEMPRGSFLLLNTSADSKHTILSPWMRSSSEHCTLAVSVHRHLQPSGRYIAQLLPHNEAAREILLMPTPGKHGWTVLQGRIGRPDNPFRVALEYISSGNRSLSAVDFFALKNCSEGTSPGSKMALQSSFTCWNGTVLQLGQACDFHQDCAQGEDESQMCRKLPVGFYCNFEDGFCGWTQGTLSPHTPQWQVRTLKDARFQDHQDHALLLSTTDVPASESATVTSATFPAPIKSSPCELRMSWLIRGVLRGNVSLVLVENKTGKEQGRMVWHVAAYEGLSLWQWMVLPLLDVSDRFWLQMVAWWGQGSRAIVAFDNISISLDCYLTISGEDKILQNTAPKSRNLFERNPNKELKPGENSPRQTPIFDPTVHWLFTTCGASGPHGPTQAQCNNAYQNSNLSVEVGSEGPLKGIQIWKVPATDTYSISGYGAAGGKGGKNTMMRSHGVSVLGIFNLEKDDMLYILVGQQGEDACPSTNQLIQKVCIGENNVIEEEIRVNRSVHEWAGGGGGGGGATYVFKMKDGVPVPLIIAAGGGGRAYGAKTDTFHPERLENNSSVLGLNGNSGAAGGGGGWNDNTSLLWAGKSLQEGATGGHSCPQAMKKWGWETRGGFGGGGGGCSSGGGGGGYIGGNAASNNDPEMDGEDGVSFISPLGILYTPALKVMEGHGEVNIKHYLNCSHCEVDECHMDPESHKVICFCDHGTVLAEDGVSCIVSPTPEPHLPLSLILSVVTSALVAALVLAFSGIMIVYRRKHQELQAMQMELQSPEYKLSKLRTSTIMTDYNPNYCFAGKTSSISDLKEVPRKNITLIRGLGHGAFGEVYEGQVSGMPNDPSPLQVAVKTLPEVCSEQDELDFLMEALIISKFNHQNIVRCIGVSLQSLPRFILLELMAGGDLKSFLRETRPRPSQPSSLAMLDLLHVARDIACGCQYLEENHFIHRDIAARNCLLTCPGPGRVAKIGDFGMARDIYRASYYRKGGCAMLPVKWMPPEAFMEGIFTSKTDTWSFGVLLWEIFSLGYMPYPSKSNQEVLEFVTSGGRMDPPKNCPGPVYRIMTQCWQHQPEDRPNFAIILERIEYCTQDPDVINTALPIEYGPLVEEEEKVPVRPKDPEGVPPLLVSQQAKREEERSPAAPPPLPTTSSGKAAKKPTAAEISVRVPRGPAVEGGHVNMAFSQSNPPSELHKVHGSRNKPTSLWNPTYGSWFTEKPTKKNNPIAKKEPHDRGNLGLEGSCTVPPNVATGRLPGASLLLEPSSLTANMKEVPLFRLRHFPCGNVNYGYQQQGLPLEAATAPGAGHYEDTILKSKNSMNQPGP
Excerpt: (§5) These receptors have a methionine gatekeeper in their kinase domains, and are related to hyperglycemia in other clinical trials of EGFR TKI, such as Co-1686.

[7] = biological target: T2, TSSK1(h) (Homo sapiens, UniProt Q9BXA7); experiment: Kinase panel (Eurofins); assay type: biochemical; conditions: n = 2; for inhibition at 1 µM: at 1 μmol/L; for IC50: read-out: IC50 kinase inhibition
T2 construct: purchased Eurofins
T2 sequence (Q9BXA7 1-367): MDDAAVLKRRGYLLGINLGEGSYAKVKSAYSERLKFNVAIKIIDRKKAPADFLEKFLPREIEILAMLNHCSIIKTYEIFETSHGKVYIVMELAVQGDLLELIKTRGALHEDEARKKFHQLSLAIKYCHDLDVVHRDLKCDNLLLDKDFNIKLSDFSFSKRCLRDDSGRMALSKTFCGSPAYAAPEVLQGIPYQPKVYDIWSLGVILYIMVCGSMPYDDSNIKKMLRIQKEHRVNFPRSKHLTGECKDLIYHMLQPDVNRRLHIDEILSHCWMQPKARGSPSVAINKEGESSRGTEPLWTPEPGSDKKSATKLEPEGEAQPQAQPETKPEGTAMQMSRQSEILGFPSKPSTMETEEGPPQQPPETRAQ
Excerpt: as §5

[8] = biological target: T3, ErbB4(h) (Homo sapiens, UniProt Q15303); experiment: Kinase panel (Eurofins); assay type: biochemical; conditions: n = 2; for inhibition at 1 µM: at 1 μmol/L; for IC50: read-out: IC50 kinase inhibition
T3 construct: purchased Eurofins
T3 sequence (Q15303 26-1308): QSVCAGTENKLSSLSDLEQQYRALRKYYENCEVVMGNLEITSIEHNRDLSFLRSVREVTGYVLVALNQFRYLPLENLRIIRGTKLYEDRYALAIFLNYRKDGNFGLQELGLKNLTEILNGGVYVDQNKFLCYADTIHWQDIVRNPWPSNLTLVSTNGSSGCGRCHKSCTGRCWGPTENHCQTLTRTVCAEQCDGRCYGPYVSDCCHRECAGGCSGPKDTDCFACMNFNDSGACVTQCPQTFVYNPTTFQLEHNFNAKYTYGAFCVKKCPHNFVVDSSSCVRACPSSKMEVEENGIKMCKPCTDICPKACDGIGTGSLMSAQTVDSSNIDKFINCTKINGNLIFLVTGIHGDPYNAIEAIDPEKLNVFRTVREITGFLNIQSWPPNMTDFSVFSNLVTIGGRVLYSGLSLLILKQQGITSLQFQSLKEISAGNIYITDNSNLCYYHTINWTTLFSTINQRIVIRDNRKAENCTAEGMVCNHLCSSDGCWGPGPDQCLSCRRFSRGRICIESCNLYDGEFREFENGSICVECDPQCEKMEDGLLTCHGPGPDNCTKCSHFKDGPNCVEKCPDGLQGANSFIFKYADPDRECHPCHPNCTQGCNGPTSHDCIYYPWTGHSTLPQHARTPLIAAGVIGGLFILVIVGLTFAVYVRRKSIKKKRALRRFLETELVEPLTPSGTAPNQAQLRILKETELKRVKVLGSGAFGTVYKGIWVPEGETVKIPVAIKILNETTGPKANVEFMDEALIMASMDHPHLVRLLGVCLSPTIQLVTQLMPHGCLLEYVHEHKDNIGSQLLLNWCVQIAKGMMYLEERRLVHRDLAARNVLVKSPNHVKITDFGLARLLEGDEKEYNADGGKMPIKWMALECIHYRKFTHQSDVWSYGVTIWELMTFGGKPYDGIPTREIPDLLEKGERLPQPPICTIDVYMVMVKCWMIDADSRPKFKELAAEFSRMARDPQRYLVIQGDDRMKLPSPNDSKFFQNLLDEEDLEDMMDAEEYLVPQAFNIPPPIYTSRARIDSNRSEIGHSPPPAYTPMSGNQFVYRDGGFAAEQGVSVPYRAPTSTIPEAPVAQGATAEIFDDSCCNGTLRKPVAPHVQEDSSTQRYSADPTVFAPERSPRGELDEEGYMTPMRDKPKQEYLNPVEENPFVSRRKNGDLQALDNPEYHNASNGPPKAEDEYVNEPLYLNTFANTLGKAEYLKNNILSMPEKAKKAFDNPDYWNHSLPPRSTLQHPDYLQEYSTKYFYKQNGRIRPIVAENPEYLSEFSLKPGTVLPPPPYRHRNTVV
Excerpt: as §5

[9] = biological target: T4, Fes(h) (Homo sapiens, UniProt P07332); experiment: Kinase panel (Eurofins); assay type: biochemical; conditions: n = 2; for inhibition at 1 µM: at 1 μmol/L; for IC50: read-out: IC50 kinase inhibition
T4 construct: purchased Eurofins
T4 sequence (P07332 whole entry): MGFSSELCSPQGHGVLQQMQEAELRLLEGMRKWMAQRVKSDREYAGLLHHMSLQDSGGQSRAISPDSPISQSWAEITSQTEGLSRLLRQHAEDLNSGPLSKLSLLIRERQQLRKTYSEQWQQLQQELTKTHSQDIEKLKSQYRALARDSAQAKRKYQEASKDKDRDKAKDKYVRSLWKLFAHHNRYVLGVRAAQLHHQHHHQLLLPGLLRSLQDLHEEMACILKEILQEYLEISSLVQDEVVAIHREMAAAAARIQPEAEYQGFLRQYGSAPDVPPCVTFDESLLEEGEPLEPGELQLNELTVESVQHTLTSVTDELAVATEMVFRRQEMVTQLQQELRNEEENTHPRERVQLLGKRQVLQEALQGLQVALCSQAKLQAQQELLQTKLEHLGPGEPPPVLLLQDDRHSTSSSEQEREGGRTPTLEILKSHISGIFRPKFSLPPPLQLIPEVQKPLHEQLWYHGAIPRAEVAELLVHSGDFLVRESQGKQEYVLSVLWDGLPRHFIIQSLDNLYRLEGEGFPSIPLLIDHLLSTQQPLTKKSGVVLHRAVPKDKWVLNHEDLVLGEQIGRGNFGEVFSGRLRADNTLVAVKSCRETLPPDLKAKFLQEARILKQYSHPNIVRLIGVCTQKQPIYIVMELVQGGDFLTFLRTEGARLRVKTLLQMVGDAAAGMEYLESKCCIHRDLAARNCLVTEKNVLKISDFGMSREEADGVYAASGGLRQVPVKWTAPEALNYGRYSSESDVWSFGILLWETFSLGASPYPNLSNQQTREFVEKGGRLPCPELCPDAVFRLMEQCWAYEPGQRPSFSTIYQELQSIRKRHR
Excerpt: as §5

[10] = biological target: T5, IGF-1R(h), activated (Homo sapiens, UniProt P08069); experiment: Kinase panel (Eurofins); assay type: biochemical; conditions: n = 2; for inhibition at 1 µM: at 1 μmol/L; for IC50: read-out: IC50 kinase inhibition
T5 construct: purchased Eurofins
Excerpt: as §5

[11] = biological target: T6, PTK5(h) (Homo sapiens, UniProt P42685); experiment: Kinase panel (Eurofins); assay type: biochemical; conditions: n = 2; for inhibition at 1 µM: at 1 μmol/L; for IC50: read-out: IC50 kinase inhibition
T6 construct: purchased Eurofins
T6 sequence (P42685 whole entry): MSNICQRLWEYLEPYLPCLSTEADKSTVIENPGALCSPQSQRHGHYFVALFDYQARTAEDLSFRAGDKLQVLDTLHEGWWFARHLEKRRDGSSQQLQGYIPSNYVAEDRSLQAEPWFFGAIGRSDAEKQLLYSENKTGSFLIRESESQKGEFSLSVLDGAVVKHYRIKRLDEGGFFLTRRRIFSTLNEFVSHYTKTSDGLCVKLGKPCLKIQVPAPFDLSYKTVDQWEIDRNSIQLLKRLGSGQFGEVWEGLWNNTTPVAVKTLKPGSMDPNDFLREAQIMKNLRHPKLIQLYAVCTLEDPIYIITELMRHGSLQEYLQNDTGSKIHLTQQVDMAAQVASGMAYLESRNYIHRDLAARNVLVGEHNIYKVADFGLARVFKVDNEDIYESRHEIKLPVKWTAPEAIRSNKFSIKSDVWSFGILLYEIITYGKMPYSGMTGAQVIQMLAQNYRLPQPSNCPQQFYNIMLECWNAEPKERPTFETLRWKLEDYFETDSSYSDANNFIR
Excerpt: as §5

[12] = biological target: T7, Fer(h) (Homo sapiens, UniProt P16591); experiment: Kinase panel (Eurofins); assay type: biochemical; conditions: n = 2; for inhibition at 1 µM: at 1 μmol/L; for IC50: read-out: IC50 kinase inhibition
T7 construct: purchased Eurofins
T7 sequence (P16591 whole entry): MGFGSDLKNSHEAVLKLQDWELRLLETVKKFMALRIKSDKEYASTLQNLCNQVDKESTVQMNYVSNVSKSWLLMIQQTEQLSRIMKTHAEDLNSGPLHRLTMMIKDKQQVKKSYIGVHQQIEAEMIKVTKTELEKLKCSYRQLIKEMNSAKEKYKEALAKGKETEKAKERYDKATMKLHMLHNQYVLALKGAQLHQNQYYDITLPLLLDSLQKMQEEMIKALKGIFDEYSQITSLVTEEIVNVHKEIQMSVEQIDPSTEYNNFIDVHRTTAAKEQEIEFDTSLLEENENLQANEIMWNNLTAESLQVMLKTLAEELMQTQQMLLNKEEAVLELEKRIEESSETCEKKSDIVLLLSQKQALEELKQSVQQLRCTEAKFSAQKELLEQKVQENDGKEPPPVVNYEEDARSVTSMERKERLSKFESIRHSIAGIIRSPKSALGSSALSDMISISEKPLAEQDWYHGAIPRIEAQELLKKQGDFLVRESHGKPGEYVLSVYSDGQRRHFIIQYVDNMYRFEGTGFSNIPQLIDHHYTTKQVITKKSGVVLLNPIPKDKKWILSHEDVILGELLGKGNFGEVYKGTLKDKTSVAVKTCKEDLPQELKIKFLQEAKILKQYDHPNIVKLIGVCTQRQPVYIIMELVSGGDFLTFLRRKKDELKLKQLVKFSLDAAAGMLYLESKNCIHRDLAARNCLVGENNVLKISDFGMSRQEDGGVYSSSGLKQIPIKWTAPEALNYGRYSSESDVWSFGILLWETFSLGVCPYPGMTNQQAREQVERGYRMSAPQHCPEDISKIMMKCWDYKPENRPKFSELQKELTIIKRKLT
Excerpt: as §5

[13] = biological target: T8, LTK(h) (Homo sapiens, UniProt P29376); experiment: Kinase panel (Eurofins); assay type: biochemical; conditions: n = 2; for inhibition at 1 µM: at 1 μmol/L; for IC50: read-out: IC50 kinase inhibition
T8 construct: purchased Eurofins
Excerpt: as §5

| SMILES | IC50 [1] | IC50 [2] | inhibitory effect on EGFR phosphorylation [3] | duration of continued inhibition of EGFR phosphorylation after wash-out [4] | duration of continued inhibition of EGFR phosphorylation after wash-out [5] | inhibition at 1 µM [6] | IC50 [6] | inhibition at 1 µM [7] | IC50 [7] | inhibition at 1 µM [8] | IC50 [8] | inhibition at 1 µM [9] | IC50 [9] | inhibition at 1 µM [10] | IC50 [10] | inhibition at 1 µM [11] | IC50 [11] | inhibition at 1 µM [12] | IC50 [12] | inhibition at 1 µM [13] | also measured |
| --- | --- | --- | --- | --- | --- | --- | --- | --- | --- | --- | --- | --- | --- | --- | --- | --- | --- | --- | --- | --- | --- |
| C=CC(=O)Nc1cc(Nc2nccc(-c3c4n(c5ccccc35)CCCC4)n2)c(OC)cc1N(C)CCNC [Imp3] | 15 ± 0.65 nM | 17.1 ± 0.55 nM | stronger inhibitory effects on EGFR phosphorylation compared to osimertinib | at least 6 h | at least 6 h | 92% | 53 nM | 98% | 73 nM | 92% | 84 nM | 74% | 309 nM | 64% | 709 nM | 64% | 736 nM | 80% | 452 nM | 93% | IC50 [13]: 61 nM |
| C=CC(=O)Nc1cc(Nc2nccc(-c3c4n(c5ccccc35)CCCC4)n2)c(OC)cc1N(C)CCN(C)C [SH-1028] | 7.63 ± 0.18 nM | 9.39 ± 0.88 nM | stronger inhibitory effects on EGFR phosphorylation compared to osimertinib | at least 6 h | at least 6 h | 85% | 79 nM | 84% | 104 nM | 90% | 46 nM | 46% | 557 nM | 46% | 499 nM | 39% | 644 nM | 45% | 542 nM | 83% | fold more sensitive than the inhibition of wild-type EGFR in A431 cells ([1]; PC-9 vs A431, proliferation IC50): ~102 fold; fold more sensitive than the inhibition of wild-type EGFR in A431 cells ([2]; H3255 vs A431, proliferation IC50): ~83 fold; IC50 [13]: 81 nM |
